Results reported in patent publication US10611730B2, “Benzimidazolone and benzothiazolone compounds and their use as AMPA receptor modulators” (Janssen Pharmaceutica NV, priority 2015, dated 2020).

Target: TARP γ8 dependent AMPA receptor (GluA1o-g8 fusion channel) (Homo sapiens (Human), UniProt P42261+Q8WXS5)
Assay: Calcium flux assay (FLIPR), HEK293 cells expressing GRIA1o-CACNG8 fusion
Format: cell-based
Conditions: inhibition of calcium flux after 15 μM glutamate, read-out: GluR1-γ8 pIC50 (converted)
In short: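 Stable HEK293 clone expressing GluA1o-γ8 fusion (1:1 stoichiometry), loaded with Calcium-5/6 dye plus test compound; glutamate-evoked fluorescence normalized to control wells. Concentration-response fitted to four-parameter logistic, midpoint taken as inhibitory potency.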

Sequence of TARP γ8 dependent AMPA receptor (GluA1o-g8 fusion channel) (P42261 other isoform, or with tags, fused parts or gaps): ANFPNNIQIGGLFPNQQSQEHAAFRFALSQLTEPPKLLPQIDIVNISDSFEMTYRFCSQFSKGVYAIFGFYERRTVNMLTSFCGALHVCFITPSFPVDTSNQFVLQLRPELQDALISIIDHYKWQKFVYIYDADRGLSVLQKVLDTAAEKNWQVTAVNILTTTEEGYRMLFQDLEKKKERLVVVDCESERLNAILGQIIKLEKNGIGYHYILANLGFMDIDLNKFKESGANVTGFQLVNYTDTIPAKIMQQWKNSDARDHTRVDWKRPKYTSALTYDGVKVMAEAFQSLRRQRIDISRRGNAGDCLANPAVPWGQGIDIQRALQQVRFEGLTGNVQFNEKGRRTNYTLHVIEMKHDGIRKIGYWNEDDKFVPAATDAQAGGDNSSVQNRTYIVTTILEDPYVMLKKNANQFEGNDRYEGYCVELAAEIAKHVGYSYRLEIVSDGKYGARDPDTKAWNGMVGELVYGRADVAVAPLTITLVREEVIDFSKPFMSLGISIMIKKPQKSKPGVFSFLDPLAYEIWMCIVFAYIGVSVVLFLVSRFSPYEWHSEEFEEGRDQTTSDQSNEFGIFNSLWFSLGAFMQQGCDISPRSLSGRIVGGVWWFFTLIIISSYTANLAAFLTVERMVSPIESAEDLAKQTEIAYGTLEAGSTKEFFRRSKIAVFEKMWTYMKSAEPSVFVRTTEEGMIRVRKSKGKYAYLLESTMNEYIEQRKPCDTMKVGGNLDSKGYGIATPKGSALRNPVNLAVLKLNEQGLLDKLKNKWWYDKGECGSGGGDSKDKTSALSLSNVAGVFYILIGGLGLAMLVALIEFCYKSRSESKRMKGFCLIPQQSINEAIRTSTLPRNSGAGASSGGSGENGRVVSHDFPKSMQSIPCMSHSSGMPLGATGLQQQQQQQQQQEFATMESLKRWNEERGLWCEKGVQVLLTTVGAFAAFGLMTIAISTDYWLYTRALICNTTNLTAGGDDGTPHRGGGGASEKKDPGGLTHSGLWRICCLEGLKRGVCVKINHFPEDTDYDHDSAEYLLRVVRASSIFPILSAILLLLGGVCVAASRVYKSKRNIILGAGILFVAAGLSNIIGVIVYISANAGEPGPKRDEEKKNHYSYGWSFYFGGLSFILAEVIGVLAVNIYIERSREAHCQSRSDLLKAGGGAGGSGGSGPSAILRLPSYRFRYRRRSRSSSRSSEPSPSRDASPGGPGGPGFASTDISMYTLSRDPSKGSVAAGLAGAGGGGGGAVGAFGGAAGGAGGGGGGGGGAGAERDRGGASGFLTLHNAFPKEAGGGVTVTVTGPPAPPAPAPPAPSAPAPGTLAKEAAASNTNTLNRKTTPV

SMILES	IC50 [nM]
O=c1[nH]c2ccc(-c3c(Cl)cccc3Oc3cncs3)cc2[nH]1 [Example 101, 5-(2-Chloro-6-thiazol-5-yloxy-phenyl)-1,3-dihydrobenzimidazol-2-one]	316
COc1cccc(OCC(F)F)c1-c1ccc2[nH]c(=O)[nH]c2c1 [Example 102, 5-[2-(2,2-Difluoroethoxy)-6-methoxy-phenyl]-1,3-dihydrobenzimidazol-2-one]	398
COc1cccc(OCC(F)(F)F)c1-c1ccc2[nH]c(=O)[nH]c2c1 [Example 103, 5-[2-Methoxy-6-(2,2,2-trifluoroethoxy)phenyl]-1,3-dihydrobenzimidazol-2-one]	398
COc1cccc(OCC(C)(C)C)c1-c1ccc2[nH]c(=O)[nH]c2c1 [Example 104, 5-[2-(2,2-Dimethylpropoxy)-6-methoxy-phenyl]-1,3-dihydrobenzimidazol-2-one]	100
COc1cccc(OCc2ccccc2)c1-c1ccc2[nH]c(=O)[nH]c2c1 [Example 105, 5-(2-Benzyloxy-6-methoxy-phenyl)-1,3-dihydrobenzimidazol-2-one]	39.8
COc1cccc(OCc2ccc(F)cc2)c1-c1ccc2[nH]c(=O)[nH]c2c1 [Example 106]	39.8
CC(C)Oc1cccc(OC(C)C)c1-c1ccc2[nH]c(=O)[nH]c2c1 [Example 107, 5-(2,6-Diisopropoxyphenyl)-1,3-dihydrobenzimidazol-2-one]	63.1
CC(C)Oc1cccc(C(F)(F)F)c1-c1ccc2[nH]c(=O)[nH]c2c1 [Example 108, 5-[2-Isopropoxy-6-(trifluoromethyl)phenyl]-1,3-dihydrobenzimidazol-2-one]	79.4
O=c1[nH]c2ccc(-c3cccc(OC4CC4)c3Cl)cc2[nH]1 [Example 109, 5-[2-Chloro-3-(cyclopropoxy)phenyl]-1,3-dihydrobenzimidazol-2-one]	39.8
CC(C)Oc1cccc(-c2ccc3[nH]c(=O)[nH]c3c2)c1Cl [Example 110, 5-(2-Chloro-3-isopropoxy-phenyl)-1,3-dihydrobenzimidazol-2-one]	31.6
O=c1[nH]c2ccc(-c3cccc(OCC(F)F)c3Cl)cc2[nH]1 [Example 112, 5-[2-Chloro-3-(2,2-difluoroethoxy)phenyl]-1,3-dihydrobenzimidazol-2-one]	126
O=c1[nH]c2ccc(-c3cccc(OC(F)F)c3Cl)cc2[nH]1 [Example 113, 5-[2-Chloro-3-(difluoromethoxy)phenyl]-1,3-dihydrobenzimidazol-2-one]	79.4
CC(C)(C)OC(=O)N1CC(Oc2cccc(-c3ccc4[nH]c(=O)[nH]c4c3)c2Cl)C1 [Example 114, tert-Butyl 3-[2-chloro-3-(2-oxo-1,3-dihydrobenzimidazol-5-yl)phenoxy]azetidine-1-carboxylate]	200
CC(C)Oc1c(Cl)cccc1-c1ccc2[nH]c(=O)[nH]c2c1 [Example 115, 5-(3-Chloro-2-isopropoxy-phenyl)-1,3-dihydrobenzimidazol-2-one]	2000
CC(C)(C)Oc1cccc(Cl)c1-c1ccc2[nH]c(=O)[nH]c2c1 [Example 116, 5-(2-tert-Butoxy-6-chloro-phenyl)-1,3-dihydrobenzimidazol-2-one]	158
COc1cccc(OC(C)(C)C)c1-c1ccc2[nH]c(=O)[nH]c2c1 [Example 117, 5-(2-tert-Butoxy-6-methoxy-phenyl)-1,3-dihydrobenzimidazol-2-one]	1000
N#CCc1ccc(Cl)c(Cl)c1-c1ccc2[nH]c(=O)[nH]c2c1 [Example 122, 2-[3,4-Dichloro-2-(2-oxo-1,3-dihydrobenzimidazol-5-yl)phenyl]acetonitrile]	7.94
CC(C)(C#N)c1cccc(Cl)c1-c1ccc2[nH]c(=O)[nH]c2c1 [Example 127, 2-[3-Chloro-2-(2-oxo-1,3-dihydrobenzimidazol-5-yl)phenyl]-2-methyl-propanenitrile]	25.1
N#CC1(c2cccc(Cl)c2-c2ccc3[nH]c(=O)[nH]c3c2)CC1 [Example 128, 1-[3-Chloro-2-(2-oxo-1,3-dihydrobenzimidazol-5-yl)phenyl]cyclopropanecarbonitrile]	398
N#CC1(c2cccc(Cl)c2-c2ccc3[nH]c(=O)[nH]c3c2)CCC1 [Example 129, 1-[3-Chloro-2-(2-oxo-1,3-dihydrobenzimidazol-5-yl)phenyl]cyclobutanecarbonitrile]	794
N#CCc1cccc(-c2ccc3[nH]c(=O)[nH]c3c2)c1Cl [Example 130, 2-[2-Chloro-3-(2-oxo-1,3-dihydrobenzimidazol-5-yl)phenyl]acetonitrile]	2000
N#CCc1ccc(Cl)c(-c2ccc3[nH]c(=O)[nH]c3c2)c1Cl [Example 131, 2-[2,4-Dichloro-3-(2-oxo-1,3-dihydrobenzimidazol-5-yl)phenyl]acetonitrile]	2000

SMILES	IC50 [nM]
N#CCc1cccc(Br)c1-c1ccc2[nH]c(=O)[nH]c2c1 [Example 132, 2-[3-Bromo-2-(2-oxo-1,3-dihydrobenzimidazol-5-yl)phenyl]acetonitrile]	31.6
N#CCc1cccc(Cl)c1-c1ccc2[nH]c(=O)sc2c1 [Example 133, 2-[3-Chloro-2-(2-oxo-3H-1,3-benzothiazol-6-yl)phenyl]acetonitrile]	3.16
O=c1[nH]c2ccc(-c3c(Cl)cncc3Cl)cc2s1 [Example 134, 6-(3,5-Dichloro-4-pyridyl)-3H-1,3-benzothiazol-2-one]	63.1
N#CCc1cccc(-c2ccc(F)cc2)c1-c1ccc2[nH]c(=O)[nH]c2c1 [Example 135, 2-[3-(4-Fluorophenyl)-2-(2-oxo-1,3-dihydrobenzimidazol-5-yl)phenyl]acetonitrile]	20
N#CCc1cccc(-c2ccccc2F)c1-c1ccc2[nH]c(=O)[nH]c2c1 [Example 136, 2-[3-(2-Fluorophenyl)-2-(2-oxo-1,3-dihydrobenzimidazol-5-yl)phenyl]acetonitrile]	158
COc1ccc(-c2cccc(CC#N)c2-c2ccc3[nH]c(=O)[nH]c3c2)cc1 [Example 137, 2-[3-(4-Methoxyphenyl)-2-(2-oxo-1,3-dihydrobenzimidazol-5-yl)phenyl]acetonitrile]	316
N#CCc1cccc(C2CC2)c1-c1ccc2[nH]c(=O)[nH]c2c1 [Example 138, 2-[3-Cyclopropyl-2-(2-oxo-1,3-dihydrobenzimidazol-5-yl)phenyl]acetonitrile]	100
O=c1[nH]c2ccc(-c3c(Cl)ccc(CN4CCOCC4)c3Cl)cc2[nH]1 [Example 139, 5-[2,6-Dichloro-3-(morpholinomethyl)phenyl]-1,3-dihydrobenzimidazol-2-one]	251
O=c1[nH]c2ccc(-c3c(Cl)ccc(CN4CCCCC4)c3Cl)cc2[nH]1 [Example 140, 5-[2,6-Dichloro-3-(1-piperidylmethyl)phenyl]-1,3-dihydrobenzimidazol-2-one]	398
O=c1[nH]c2ccc(-c3cccc(CN4CCOCC4)c3Cl)cc2[nH]1 [Example 141, 5-[2-Chloro-3-(morpholinomethyl)phenyl]-1,3-dihydrobenzimidazol-2-one]	1000
O=c1[nH]c2ccc(-c3cccc(CN4CCCCC4)c3Cl)cc2[nH]1 [Example 142, 5-[2-Chloro-3-(1-piperidylmethyl)phenyl]-1,3-dihydrobenzimidazol-2-one]	631
CC1(C)CN(Cc2cccc(-c3ccc4[nH]c(=O)[nH]c4c3)c2Cl)CCO1 [Example 143, 5-[2-Chloro-3-[(2,2-dimethylmorpholin-4-yl)methyl]phenyl]-1,3-dihydrobenzimidazol-2-one]	100
O=c1[nH]c2ccc(-c3c(Cl)cccc3CN3CCOCC3)cc2[nH]1 [Example 145, 5-[2-Chloro-6-(morpholinomethyl)phenyl]-1,3-dihydrobenzimidazol-2-one]	1000
CN1CCN(Cc2cccc(Cl)c2-c2ccc3[nH]c(=O)[nH]c3c2)CC1 [Example 146, 5-[2-Chloro-6-[(4-methylpiperazin-1-yl)methyl]phenyl]-1,3-dihydrobenzimidazol-2-one]	7940
Cc1c(CN2CCCCC2)cccc1-c1ccc2[nH]c(=O)[nH]c2c1 [Example 147, 5-[2-Methyl-3-(1-piperidylmethyl)phenyl]-1,3-dihydrobenzimidazol-2-one]	1580
Cc1c(CN2CCOCC2)cccc1-c1ccc2[nH]c(=O)[nH]c2c1 [Example 148, 5-[2-Methyl-3-(morpholinomethyl)phenyl]-1,3-dihydrobenzimidazol-2-one]	2000
Cc1c(CN2CCOC(C)(C)C2)cccc1-c1ccc2[nH]c(=O)[nH]c2c1 [Example 149, 5-[3-[(2,2-Dimethylmorpholin-4-yl)methyl]-2-methyl-phenyl]-1,3-dihydrobenzimidazol-2-one]	20
Cc1c(CN2CCSCC2)cccc1-c1ccc2[nH]c(=O)[nH]c2c1 [Example 154, 5-[2-Methyl-3-(thiomorpholinomethyl)phenyl]-1,3-dihydrobenzimidazol-2-one]	200
Cc1c(CN2CCN(C(=O)OC(C)(C)C)CC2)cccc1-c1ccc2[nH]c(=O)[nH]c2c1 [Example 155, tert-Butyl 4-[[2-methyl-3-(2-oxo-1,3-dihydrobenzimidazol-5-yl)phenyl]methyl]piperazine-1-carboxylate]	316
Cc1c(CN2CCCC2)cccc1-c1ccc2[nH]c(=O)[nH]c2c1 [Example 156, 5-[2-Methyl-3-(pyrrolidin-1-ylmethyl)phenyl]-1,3-dihydrobenzimidazol-2-one]	6310
Cc1c(CN2CC(F)C2)cccc1-c1ccc2[nH]c(=O)[nH]c2c1 [Example 157, 5-[3-[(3-Fluoroazetidin-1-yl)methyl]-2-methyl-phenyl]-1,3-dihydrobenzimidazol-2-one]	6310
Cc1c(CN2CC3CC(C2)O3)cccc1-c1ccc2[nH]c(=O)[nH]c2c1 [Example 158, 5-[2-Methyl-3-(6-oxa-3-azabicyclo[3;1;1]heptan-3-ylmethyl)phenyl]-1,3-dihydrobenzimidazol-2-one]	6310
